According to US20120252804A1, “COMPOSITION AND METHOD FOR CONTROLLING ARTHROPOD PESTS” (SUMITOMO CHEMICAL COMPANY, LIMITED, priority 2009, published 2012):

Experiments:
Format in all cases: in vivo
[1] = tested on: brown planthopper (Nilaparvata lugens); assay: Test Example 1: pesticidal effect against brown planthopper by foliage spray treatment of rice; settings: composition of the compound and pyriproxyfen; foliage spray on rice seedlings, third-instar larvae, after 5 days; summary of Table 43
[2] = tested on: Sweetpotato Whitefly (Bemisia tabaci); assay: Test Example 2: pesticidal effect of leaf dipping treatment on Sweetpotato Whitefly; settings: composition of the compound and pyriproxyfen; cabbage leaf disk with eggs dipped 30 seconds, after 8 days; summary of Table 44
[3] = tested on: brown planthopper (Nilaparvata lugens); assay: Test Example 3: pesticidal effect against brown planthopper by foliage spray treatment of rice; settings: composition of the compound and pyriproxyfen; foliage spray on rice seedlings, third-instar larvae, after 5 days; summary of Table 45
[4] = tested on: Sweetpotato Whitefly (Bemisia tabaci); assay: Test Example 4: pesticidal effect of leaf dipping treatment on Sweetpotato Whitefly; settings: composition of the compound and pyriproxyfen; cabbage leaf disk with eggs dipped 30 seconds, after 8 days; summary of Table 46

| SMILES | pesticidal efficacy against brown planthopper (Nilaparvata lugens) [1] | pesticidal efficacy on Sweetpotato Whitefly (Bemisia tabaci) [2] | pesticidal efficacy against brown planthopper (Nilaparvata lugens) [3] | pesticidal efficacy on Sweetpotato Whitefly (Bemisia tabaci) [4] |
| --- | --- | --- | --- | --- |
| FC(F)(F)c1ccc2oc(-c3ccncc3Cl)nc2c1 [Compound 18, 2-(3-chloropyridin-4-yl)-5-(trifluoromethyl)benzoxazole] | high pesticidal efficacy | high pesticidal efficacy |  |  |
| FC(F)(F)c1ccc2oc(-c3ccncc3-c3cccnc3)nc2c1 [Compound 128, 4-(5-trifluoromethyl-benzoxazole-2-yl)-[3,3]bipyridinyl] | high pesticidal efficacy | high pesticidal efficacy |  |  |
| FC(F)(F)COc1cnccc1-c1nc2cc(C(F)(F)F)cnc2o1 [Compound 163] |  |  | high pesticidal efficacy | high pesticidal efficacy |
| CSc1cnccc1-c1nc2cc(C(F)(F)F)cnc2o1 [Compound 146, 2-(3-methylthiopyridin-4-yl)-6-(trifluoromethyl)oxazolo[5,4-b]pyridine] | high pesticidal efficacy | high pesticidal efficacy |  |  |
| CCc1cnccc1-c1nc2cc(OC(F)(F)F)ccc2o1 [Compound 109, 2-(3-ethylpyridin-4-yl)-5-(trifluoromethoxy)benzoxazole] | high pesticidal efficacy | high pesticidal efficacy |  |  |
| CC(C)(C)COc1cnccc1-c1nc2cc(C(F)(F)F)ccc2o1 [Compound 117, 2-[3-(2,2-dimethylpropoxy)pyridin-4-yl]-5-(trifluoromethyl)benzoxazole] |  |  | high pesticidal efficacy | high pesticidal efficacy |
| CC(C)COc1cnccc1-c1nc2cc(C(F)(F)F)ccc2o1 [Compound 116, 2-(3-isobutoxypyridin-4-yl)-5-(trifluoromethyl)benzoxazole] |  |  | high pesticidal efficacy | high pesticidal efficacy |
| FC(F)(F)c1cnc2oc(-c3ccncc3Cl)nc2c1 [Compound 139, 2-(3-chloropyridin-4-yl)-6-(trifluoromethyl)oxazolo[5,4-b]pyridine] | high pesticidal efficacy | high pesticidal efficacy |  |  |
| CCc1cnccc1-c1nc2cc(C(F)(F)F)cnc2o1 [Compound 143, 2-(3-ethylpyridin-4-yl)-6-(trifluoromethyl)oxazolo[5,4-b]pyridine] | high pesticidal efficacy | high pesticidal efficacy |  |  |
| FC(F)(F)COc1cnccc1-c1nc2cc(C(F)(F)F)ccc2o1 [Compound 39, 2-[3-(2,2,2-trifluoroethyl)oxypyridin-4-yl]-5-(trifluoromethyl)benzoxazole] |  |  | high pesticidal efficacy | high pesticidal efficacy |
| CC(C)Oc1cnccc1-c1nc2cc(C(F)(F)F)ccc2o1 [Compound 70, 2-(3-isopropoxypyridin-4-yl)-5-(trifluoromethyl)benzoxazole] | high pesticidal efficacy | high pesticidal efficacy |  |  |
| FC(F)(F)Sc1ccc2oc(-c3ccncc3Cl)nc2c1 [Compound 77, 2-(3-chloropyridin-4-yl)-5-(trifluoromethylthio)benzoxazole] | high pesticidal efficacy | high pesticidal efficacy |  |  |
